The results in this text go back to article PMC6200635 (ACS infectious diseases, 2018).

Assay [1] deals with T. gondii tachyzoites (ME49-FLUC) in HeLa cells. The assay is described as follows: Luciferase based growth assay, multi-point dose response. It counts as cell-based. As to conditions: Toxoplasma gondii, 72 h.
The test system of assay [2] is GFP-LC3 recruitment to the T. gondii parasite-containing vacuole in GFP-LC3 HeLa cells. The assay is described as follows: Image based GFP-LC3 recruitment assay. It counts as cell-based, Toxoplasma gondii. The note with it: IFN-γ 50 U/mL, HeLa cells activated 24 h, 6 h post-infection.

Where two headings read alike, the source gives them in different places.

One may read the EC50 as the concentration at which the effect is half-maximal.

Consider `CCc1nc(N)nc(N)c1-c1ccc(Cl)cc1` [Pyrimethamine], for which the EC50 in assay [1] (read-out: EC50+ IFN-γ) is 200 nM; in assay [1] (read-out: EC50 Naïve), 160 nM.

B1: IFN-γ: recombinant human IFN-γ (R&D Systems, 285-IF-100/CF) (protein, UniProt P01579 24-161, looked up)
Interferon gamma: QDPYVKEAENLKKYFNAGHSDVADNGTLFLGILKNWKEESDRKIMQSQIVSFYFKLFKNFKDDQSIQKSVETIKEDMNVKFFNSNKKKRDDFEKLTNYSVTDLNVQRKAIHELIQVMAELSPAAKTGKRKRSQMLFRG
For the molecule B1, the “GFP-LC3 positive parasite-containing vacuoles” value in assay [2] came out at 12.4%.
